Values quoted from earlier work in patent US11083734B2 (ACUCORT AB, priority 2014, dated 2021).

Tests used:
[1] = humans, oral administration, literature and product information

| Compound | solubility in water | t(max) [1] | solubility in anhydrous ethanol |
| --- | --- | --- | --- |
| C[C@@H]1C[C@H]2[C@@H]3CCC4=CC(=O)C=C[C@]4(C)[C@@]3(F)[C@@H](O)C[C@]2(C)[C@@]1(O)C(=O)COP(=O)(O)O [dexamethasone sodium phosphate] | freely soluble |  |  |
| C[C@@H]1C[C@H]2[C@@H]3CCC4=CC(=O)C=C[C@]4(C)[C@@]3(F)[C@@H](O)C[C@]2(C)[C@@]1(O)C(=O)CO [dexamethasone] | practically insoluble | ~1.5 h | sparingly soluble |
